Test results from patent US20060020004A1, “Isoxazolidine compounds for treatment of bacterial infections” (Infinity Pharmaceuticals, Inc., priority 2004, published 2006).
Values after ≈ are worked out from the molar mass of the structure shown.

Assays:
[1] = tested on: Staphylococcus aureus (Smith) ATCC 19636; test: MIC determination, S. aureus; assay type: cell-based; conditions: S. aureus ATCC 19636, 17 h; for MIC: Staphylococcus aureus, ATCC19636
Method: (§1) Susceptibility testing for bacterial cultures is performed according to the National Council for Clinical Laboratory Standards (NCCLS) protocol M100-S12, “Performance Standards for Antimicrobial Susceptibility Testing.” The bacterial strains recommended by NCCLS were obtained from the American Type Culutre Collection (ATCC) (Table) and were maintained on Mueller Hinton (MHA) agar plates plus or minus 3% lysed horse blood (see Table). The bacteria were grown in Cation adjusted Mueller Hinton Broth (CaMHB) for liquid growth and susceptibility testing. S. cerevisiae (yeast) is grown in yeast peptone dextrose (YPD) media.
(§2) All bacterial cultures were grown at 37 degrees Celsius. Fresh colonies of S. aureus and MRSA were inoculated into liquid media and grown overnight and diluted the next day to grow to mid-log (Table 2). E. faecalis and S. pneumonia mid-log cultures were started directly from colony on plates. To attain mid-log growth, cultures were grown to an optical density (OD) at A590 of 0.2-0.8 (see Table 2) and then diluted to proper OD to obtain 5×10^5 cells/mL.
(§3) Diluted bacterial cultures are added to compound plates with compound diluted 2-fold from 100 μg/mL to 0.2 μg/mL final concentration in DMSO. Control antibiotics are also added: vancomycin, linezolid, and penicillin. In 384 well plates, 0.5 μL compound is added followed by addition of 50 μL of culture. DMSO alone is included as a control. Plates incubated at 37 degrees Celsius for 17-24 h.
(§4) Plates with cells mixed with compounds are incubated for 17 h for S. aureus and yeast, 24 h for MRSA, and all Enterococcus and Streptococcus strains. Yeast plates are incubated […].
(§5) Viability is determined by reading plates at A590 to determine optical density of treated and untreated cells and determining growth inhibition relative to controls.

[2] = tested on: Methicillin resistant S. aureus ATCC 33591; test: MIC determination, MRSA; assay type: cell-based, Staphylococcus aureus; conditions: MRSA ATCC 33591, 24 h; for MIC: Staphylococcus aureus
Method: as §1, §2, §3, §4, §5

[3] = tested on: Penicillin-res. S. pneumonia ATCC 700671; test: MIC determination, PRSP; assay type: cell-based, Streptococcus pneumonia; conditions: ATCC 700671, 24 h; for MIC: Streptococcus pneumoniae
Method: as §1, §2, §3, §4, §5

[4] = tested on: Enterococcus faecalis ATCC 29212; test: MIC determination, E. faecalis; assay type: cell-based; conditions: ATCC 29212, 24 h
Method: as §1, §2, §3, §4, §5

[5] = tested on: Streptococcus pneumonia ATCC 49619; test: MIC determination, S. pneumonia; assay type: cell-based; conditions: for MIC S. pneuomiae: ATCC 49619, 24 h; for MIC: Streptococcus pneumoniae, ATCC49619, 24 h, read-out: MIC S. pneuomiae
Method: as §1, §2, §3, §4, §5

[6] = tested on: Van-intermediate E. faecalis ATCC 51299 / Van-resistant E. faecalis ATCC 700221; test: MIC determination, VIRE/VRE; assay type: cell-based, Enterococcus faecalis; conditions: ATCC 51299 / 700221, 24 h
Method: The MICs were determined using a broth micro-dilution assay in accordance with that recommended by the National Committee for Clinical Laboratory Standards (NCCLS). The final bacterial inoculate contained approximately 5×10^5 cfu/mL and the plates were incubated at 35° C. for 18 h in ambient air (Streptococci in 5% CO2). The MIC was defined as the lowest drug concentration that prevented visible growth.
as §1, §2, §3, §4, §5

[7] = tested on: S. cerevisiae Δpdr5; test: MIC determination, yeast; assay type: cell-based; conditions: YPD, 30 degrees Celsius
Method: as §1, §3
Yeast cultures are started from a fresh colony into YPD media and then diluted to OD of 0.002. Diluted yeast is added to compound plates as bacteria but incubated at 30 degrees Celsius for 17 h. Controls are amphotericin B and voriconazole.
as §4, §5

| SMILES | MIC S. aureus [1] | MIC MRSA [2] | MIC PRSP [3] | MIC E. faecalis [4] | MIC S. pneuomiae [5] | MIC VIRE/VRE [6] | MIC S. cerevisiae Δpdr5 [7] | MIC [1] [µg/mL] | MIC [2] [µg/mL] | MIC [5] [µg/mL] | MIC [3] [µg/mL] | MIC ([4]; Enterococcus faecalis, ATCC29212) [µg/mL] |
| --- | --- | --- | --- | --- | --- | --- | --- | --- | --- | --- | --- | --- |
| CC(O)C1ON(CC2CCCCC2)C(C(=O)NCCc2c[nH]c3ccccc23)C1CO (stereo not shown) | ** (the MIC is 5-90 μg/mL) | * (the MIC is >90 μg/mL) | * (the MIC is >90 μg/mL) | ** (the MIC is 5-90 μg/mL) |  |  |  |  |  |  |  |  |
| Cc1ccc(C#Cc2cccc(CN3OC(C(C)O)C(CO)C3C(=O)NCCc3c[nH]c4ccccc34)c2)cc1 (stereo not shown) | *** (the MIC is less than 5 μg/mL) | *** (the MIC is less than 5 μg/mL) | ** (the MIC is 5-90 μg/mL) | ** (the MIC is 5-90 μg/mL) | ** (the MIC is 5-90 μg/mL) | ** (the MIC is 5-90 μg/mL) | ** (the MIC is 5-90 μg/mL) |  |  |  |  |  |
| Cc1ccc(C#Cc2ccc(CN3O[C@H]([C@@H](C)O)[C@H](CO)[C@@H]3CNCCc3c[nH]c4ccccc34)cc2)cc1.Cl |  |  |  |  |  |  |  | 5 to 90 | 5 to 90 | > 90 | > 90 |  |
| Cc1ccc(C#Cc2ccc(CN3OC4CNCC4C3C(=O)NCCc3c[nH]c4ccccc34)cc2)cc1 (stereo not shown) |  |  |  |  |  |  |  | 5 to 90 (≈ 9.91 to 178 µM) | 5 to 90 (≈ 9.91 to 178 µM) | 5 to 90 (≈ 9.91 to 178 µM) | 5 to 90 (≈ 9.91 to 178 µM) |  |
| Cc1ccc(C#Cc2ccc(CN3OC(C(C)O)C(CO)C3C(=O)NCCc3cnc[nH]3)cc2)cc1 (stereo not shown) | * (the MIC is >90 μg/mL) | ** (the MIC is 5-90 μg/mL) |  |  | * (the MIC is >90 μg/mL) |  |  |  |  |  |  |  |
| Cc1ccc(CCc2ccc(CN3OC(C(C)O)C(CO)C3C(=O)NCCc3c[nH]c4ccccc34)cc2)cc1 (stereo not shown) | *** (the MIC is less than 5 μg/mL) | *** (the MIC is less than 5 μg/mL) | ** (the MIC is 5-90 μg/mL) |  | ** (the MIC is 5-90 μg/mL) |  |  |  |  |  |  |  |
| CC(O)C1ON(Cc2ccc(CCc3ccc(Cl)cc3)cc2)C(C(=O)NCCc2c[nH]c3ccccc23)C1CO (stereo not shown) | ** (the MIC is 5-90 μg/mL) | ** (the MIC is 5-90 μg/mL) | ** (the MIC is 5-90 μg/mL) |  | ** (the MIC is 5-90 μg/mL) |  |  |  |  |  |  |  |
| Cc1ccc(C#Cc2ccc(CN3OC(C(C)O)C(CO)C3C(=O)NCCc3c[nH]c4ccccc34)cc2)cc1 (stereo not shown) [drawing 205] | *** (the MIC is less than 5 μg/mL) | *** (the MIC is less than 5 μg/mL) | ** (the MIC is 5-90 μg/mL) | ** (the MIC is 5-90 μg/mL) | ** (the MIC is 5-90 μg/mL) | ** (the MIC is 5-90 μg/mL) | ** (the MIC is 5-90 μg/mL) |  |  |  |  |  |
| CC(O)C1ON(Cc2ccc(C=Cc3ccccc3)cc2)C(C(=O)NCCc2c[nH]c3ccccc23)C1CO (stereo not shown) [drawing 219] | *** (the MIC is less than 5 μg/mL) | ** (the MIC is 5-90 μg/mL) | ** (the MIC is 5-90 μg/mL) | * (the MIC is >90 μg/mL) | ** (the MIC is 5-90 μg/mL) | * (the MIC is >90 μg/mL) |  |  |  |  |  |  |
| CC(O)C1ON(Cc2ccc(C=Cc3ccc(C(F)(F)F)cc3)cc2)C(C(=O)NCCc2c[nH]c3ccccc23)C1CO (stereo not shown) | ** (the MIC is 5-90 μg/mL) | ** (the MIC is 5-90 μg/mL) | ** (the MIC is 5-90 μg/mL) |  | ** (the MIC is 5-90 μg/mL) |  |  |  |  |  |  |  |
| CC(O)C1ON(Cc2ccc(-c3ccc(OC4CCCCO4)cc3)cc2)C(C(=O)NCCc2c[nH]c3ccccc23)C1CO (stereo not shown) | ** (the MIC is 5-90 μg/mL) | ** (the MIC is 5-90 μg/mL) |  |  | ** (the MIC is 5-90 μg/mL) |  |  |  |  |  |  |  |
| CC(=O)c1ccc(-c2ccc(CN3OC(C(C)O)C(CO)C3C(=O)NCCc3c[nH]c4ccccc34)cc2)cc1 (stereo not shown) | ** (the MIC is 5-90 μg/mL) | ** (the MIC is 5-90 μg/mL) | * (the MIC is >90 μg/mL) | ** (the MIC is 5-90 μg/mL) |  |  |  |  |  |  |  |  |
| CC(O)C1ON(Cc2ccc(C=Cc3ccc(Cl)cc3)cc2)C(C(=O)NCCc2c[nH]c3ccccc23)C1CO (stereo not shown) | *** (the MIC is less than 5 μg/mL) | *** (the MIC is less than 5 μg/mL) | ** (the MIC is 5-90 μg/mL) | *** (the MIC is less than 5 μg/mL) | ** (the MIC is 5-90 μg/mL) | * (the MIC is >90 μg/mL) | * (the MIC is >90 μg/mL) |  |  |  |  |  |
| CC(O)C1ON(Cc2ccccc2)C(C(=O)NCCc2c[nH]c3ccccc23)C1CO (stereo not shown) | ** (the MIC is 5-90 μg/mL) | ** (the MIC is 5-90 μg/mL) | * (the MIC is >90 μg/mL) | ** (the MIC is 5-90 μg/mL) | * (the MIC is >90 μg/mL) | ** (the MIC is 5-90 μg/mL) | ** (the MIC is 5-90 μg/mL) |  |  |  |  |  |
| Cc1ccc(C=Cc2ccc(CN3OC(C(C)O)C(CO)C3C(=O)NCCc3c[nH]c4ccccc34)cc2)cc1 (stereo not shown) | ** (the MIC is 5-90 μg/mL) | ** (the MIC is 5-90 μg/mL) | ** (the MIC is 5-90 μg/mL) |  | ** (the MIC is 5-90 μg/mL) |  |  |  |  |  |  |  |
| CCOCCCNC(=O)[C@H]1[C@@H](CO)[C@@H]([C@@H](C)O)ON1Cc1ccc(C#Cc2ccc(C)cc2)cc1 |  |  |  |  |  |  |  | 5 to 90 (≈ 10.4 to 187 µM) |  | 5 to 90 (≈ 10.4 to 187 µM) | 5 to 90 (≈ 10.4 to 187 µM) |  |
| Cc1ccc(C#Cc2ccc(CN3O[C@H]([C@@H](C)O)[C@H](CO)[C@@H]3C(=O)NCCCNC(=O)OC(C)(C)C)cc2)cc1 |  |  |  |  |  |  |  | 5 to 90 (≈ 9.06 to 163 µM) | 5 to 90 (≈ 9.06 to 163 µM) |  | 5 to 90 (≈ 9.06 to 163 µM) | 5 to 90 (≈ 9.06 to 163 µM) |
| Cc1ccc(C#Cc2ccc(CN3O[C@@H]([C@@H](C)O)[C@@H](CN(C)C)[C@@H]3C(=O)NCCc3c[nH]c4ccccc34)cc2)cc1.Cl |  |  |  |  |  |  |  | 5 to 90 | 5 to 90 |  | 5 to 90 |  |
| CC(O)C1ON(Cc2ccc(-c3ccccc3)cc2)C(C(=O)NCCc2c[nH]c3ccccc23)C1CO (stereo not shown) | ** (the MIC is 5-90 μg/mL) | ** (the MIC is 5-90 μg/mL) | * (the MIC is >90 μg/mL) |  |  |  |  |  |  |  |  |  |
| Cc1ccc(C#Cc2ccc(CN3OCC(CO)C3C(=O)NCCc3c[nH]c4ccccc34)cc2)cc1 (stereo not shown) [drawing 221] | ** (the MIC is 5-90 μg/mL) | ** (the MIC is 5-90 μg/mL) | ** (the MIC is 5-90 μg/mL) |  |  |  |  |  |  |  |  |  |
